Reference: PubChem BioAssay AID2060504 (Molecular Pharmacology Branch, DTP, NCI, 2025)
pIC50: −log10 of the molar value.

Test system: 636577-100-R-J1-PDC complex spheroid viability
Experiment: Anticancer human tumor 636577-100-R-J1-PDC patient-derived endometrial adenocarcinoma cell line growth inhibition [GQUAD]
Conditions: for pIC50: curve of first compound; for viability, T/C: stronger effect = lower value
Outline: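 Tumor cells were grown as complex spheroids with HUVEC endothelial cells and mesenchymal stem cells as stroma. G-quadruplex stabilizers were combined with targeted agents over half-log dilutions from near the clinical Cmax, or from 10 microM.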

[1] = second compound 0.0316 µM, first compound 0.0316 µM
[2] = second compound 0.0316 µM, first compound 0.1 µM
[3] = second compound 0.0316 µM, first compound 0.316 µM
[4] = second compound 0.0316 µM, first compound 1 µM
[5] = second compound 0.0316 µM, first compound 3.16 µM
[6] = second compound 0.0316 µM, first compound 10 µM
[7] = second compound 0.1 µM, first compound 0.0316 µM
[8] = second compound 0.1 µM, first compound 0.1 µM
[9] = second compound 0.1 µM, first compound 0.316 µM
[10] = second compound 0.1 µM, first compound 1 µM
[11] = second compound 0.1 µM, first compound 3.16 µM
[12] = second compound 0.1 µM, first compound 10 µM
[13] = second compound 0.316 µM, first compound 0.0316 µM
[14] = second compound 0.316 µM, first compound 0.1 µM
[15] = second compound 0.316 µM, first compound 0.316 µM
[16] = second compound 0.316 µM, first compound 1 µM
[17] = second compound 0.316 µM, first compound 3.16 µM
[18] = second compound 0.316 µM, first compound 10 µM
[19] = second compound 1 µM, first compound 0.0316 µM
[20] = second compound 1 µM, first compound 0.1 µM
[21] = second compound 1 µM, first compound 0.316 µM
[22] = second compound 1 µM, first compound 1 µM
[23] = second compound 1 µM, first compound 3.16 µM
[24] = second compound 1 µM, first compound 10 µM
[25] = second compound 3.16 µM, first compound 0.0316 µM
[26] = second compound 3.16 µM, first compound 0.1 µM
[27] = second compound 3.16 µM, first compound 0.316 µM
[28] = second compound 3.16 µM, first compound 1 µM
[29] = second compound 3.16 µM, first compound 3.16 µM
[30] = second compound 3.16 µM, first compound 10 µM
[31] = second compound 10 µM, first compound 0.0316 µM
[32] = second compound 10 µM, first compound 0.1 µM
[33] = second compound 10 µM, first compound 0.316 µM
[34] = second compound 10 µM, first compound 1 µM
[35] = second compound 10 µM, first compound 3.16 µM
[36] = second compound 10 µM, first compound 10 µM
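Note: viability read after seven days of drug exposure.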
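Throughout, for viability, T/C: luminescence signal used as a proxy for viable cells; 100% = DMSO vehicle control wells.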

With CC(C)n1c(=O)n(C)c2cnc3cc(F)c(-c4ccc(OCCCN5CCCCC5)nc4)cc3c21 + Cc1[nH]c2ccc(F)cc2c1-c1nc2c3cccnc3c3ncccc3c2[nH]1 the pIC50 (second compound 0.0316 µM) was less than 5.00, the pIC50 (second compound 0.1 µM) was 5.00 and the pIC50 (second compound 0.316 µM) was 5.15. For the same compound, the pIC50 (second compound 1 µM) was 7.50, the pIC50 (second compound 3.16 µM) was 5.44 and the pIC50 (second compound 10 µM) was 5.16. For the same compound, the viability, T/C [1] was 73.1%, the viability, T/C [2] was 74.1% and the viability, T/C [3] was 88.2%. It also gave a viability, T/C [4] of 30%, a viability, T/C [5] of 99.5% and a viability, T/C [6] of 52.4%. For the same compound, the viability, T/C [7] was 74.4%, the viability, T/C [8] was 91% and the viability, T/C [9] was 70.8%. It also gave a viability, T/C [10] of 37.9%, a viability, T/C [11] of 69.7% and a viability, T/C [12] of 48.6%. For the same compound, the viability, T/C [13] was 80.9%, the viability, T/C [14] was 96.9% and the viability, T/C [15] was 60.6%. For the same compound, the viability, T/C [16] was 58.2%, the viability, T/C [17] was 87.7% and the viability, T/C [18] was 38.5%. For the same compound, the viability, T/C [19] was 57.2%, the viability, T/C [20] was 43.3% and the viability, T/C [21] was 60.9%. It also gave a viability, T/C [22] of 54.3%, a viability, T/C [23] of 98.5% and a viability, T/C [24] of 46.8%. The viability, T/C [25] was 57.1%, the viability, T/C [26] was 54.3% and the viability, T/C [27] was 59.3%. It also gave a viability, T/C [28] of 70.8%, a viability, T/C [29] of 47% and a viability, T/C [30] of 29.8%. For the same compound, the viability, T/C [31] was 71.9%, the viability, T/C [32] was 50.6% and the viability, T/C [33] was 85.5%. The viability, T/C [34] was 89.3%, the viability, T/C [35] was 70% and the viability, T/C [36] was 40%.
With CC1COCCN1c1cc(C2(O)CC3CCC(C2)O3)c2cnn(-c3ccn[nH]3)c2n1 (stereo unspecified) + Cc1[nH]c2ccc(F)cc2c1-c1nc2c3cccnc3c3ncccc3c2[nH]1 the pIC50 (second compound 0.0316 µM) was 7.15, the pIC50 (second compound 0.1 µM) was 7.20 and the pIC50 (second compound 0.316 µM) was 7.23. It also gave a pIC50 (second compound 1 µM) greater than 7.50, a pIC50 (second compound 3.16 µM) greater than 7.50 and a pIC50 (second compound 10 µM) greater than 7.50. The viability, T/C [1] was 82.9%, the viability, T/C [2] was 33.8% and the viability, T/C [3] was 18.5%. The viability, T/C [4] was 7.11%, the viability, T/C [5] was 3.67% and the viability, T/C [6] was 1.06%. It also gave a viability, T/C [7] of 71.2%, a viability, T/C [8] of 35.3% and a viability, T/C [9] of 18.7%. For the same compound, the viability, T/C [10] was 8.6%, the viability, T/C [11] was 3.75% and the viability, T/C [12] was 1.19%. For the same compound, the viability, T/C [13] was 67.1%, the viability, T/C [14] was 36.1% and the viability, T/C [15] was 15.7%. For the same compound, the viability, T/C [16] was 8.55%, the viability, T/C [17] was 4.01% and the viability, T/C [18] was 1.3%. It also gave a viability, T/C [19] of 32%, a viability, T/C [20] of 26% and a viability, T/C [21] of 14.9%. It also gave a viability, T/C [22] of 8.44%, a viability, T/C [23] of 3.77% and a viability, T/C [24] of 1.61%. It also gave a viability, T/C [25] of 17.9%, a viability, T/C [26] of 14.8% and a viability, T/C [27] of 10.7%. It also gave a viability, T/C [28] of 7.29%, a viability, T/C [29] of 3.77% and a viability, T/C [30] of 1.49%. For the same compound, the viability, T/C [31] was 24.6%, the viability, T/C [32] was 21.4% and the viability, T/C [33] was 15.2%. For the same compound, the viability, T/C [34] was 8.61%, the viability, T/C [35] was 4.18% and the viability, T/C [36] was 1.5%.
CC1COCCN1c1cc(C2(S(C)(=N)=O)CC2)nc(-c2ccnc3[nH]ccc23)n1 (stereo unspecified) + Cc1[nH]c2ccc(F)cc2c1-c1nc2c3cccnc3c3ncccc3c2[nH]1 gave a pIC50 (second compound 0.0316 µM) of 5.93, a pIC50 (second compound 0.1 µM) of 6.19 and a pIC50 (second compound 0.316 µM) of 6.17. It also gave a pIC50 (second compound 1 µM) of 6.30, a pIC50 (second compound 3.16 µM) greater than 7.50 and a pIC50 (second compound 10 µM) of 6.40. The viability, T/C [1] was 57.4%, the viability, T/C [2] was 83.1% and the viability, T/C [3] was 94.3%. The viability, T/C [4] was 54.7%, the viability, T/C [5] was 27.9% and the viability, T/C [6] was 15.1%. The viability, T/C [7] was 93.4%, the viability, T/C [8] was 72% and the viability, T/C [9] was 64.8%. The viability, T/C [10] was 43.1%, the viability, T/C [11] was 27.2% and the viability, T/C [12] was 15.7%. The viability, T/C [13] was 51.2%, the viability, T/C [14] was 101% and the viability, T/C [15] was 63.3%. For the same compound, the viability, T/C [16] was 40.4%, the viability, T/C [17] was 23.5% and the viability, T/C [18] was 12.2%. For the same compound, the viability, T/C [19] was 50.7%, the viability, T/C [20] was 77.8% and the viability, T/C [21] was 60.8%. The viability, T/C [22] was 33.2%, the viability, T/C [23] was 22.3% and the viability, T/C [24] was 12.8%. For the same compound, the viability, T/C [25] was 28.7%, the viability, T/C [26] was 49% and the viability, T/C [27] was 31%. It also gave a viability, T/C [28] of 23.1%, a viability, T/C [29] of 15.9% and a viability, T/C [30] of 9.24%. It also gave a viability, T/C [31] of 46%, a viability, T/C [32] of 59.8% and a viability, T/C [33] of 56.5%. It also gave a viability, T/C [34] of 32.5%, a viability, T/C [35] of 18.6% and a viability, T/C [36] of 12.9%.
